This is an account of results in ChEMBL document CHEMBL1154017, “Functionalization of the A ring of pyridoacridine as a route toward greater structural diversity. Synthesis of an octacyclic analogue of eilatin” (Bioorg Med Chem Lett, 2009).

Calls of active or inactive are those of the source. The calls are words filed in the database; no cut-off is given here.

Series [1] in a line: Dissociation constant, pKa at physiological pH. Format: physicochemical.
Series [2] can be described thus: Partition coefficient, log P of the compound. Format: physicochemical. As to conditions: octanol/water.
Another series relates to HT29-AK. As to the kind of experiment: Cytotoxic activity against human HT29-AK cells assessed as cell survival at 5 uM. Format: functional, cell-based.
Series [3] deals with A-431. As to the kind of experiment: Cytotoxic activity against human A431 cells assessed as cell survival at 5 uM. The series is classed as functional. As to conditions: read-out: Activity.
Series [4] in a line: Cytostatic activity against human HT29-AK cells. Format: functional.
Series [5] deals with A-431. The experiment in a line: Cytostatic activity against human A431 cells. Format: functional, cell-based.
Series [6] can be described thus: Solubility in water. As to conditions: buffer. The series is classed as physicochemical.

Regarding `Clc1ccc2c(c1)Nc1cccc3ccnc-2c13`, in series [1], the pKa was 4.5. Besides, in series [2], the logP worked out at 3.69.

As for `CCOc1ccc2c3c(nccc13)-c1ccc3nc4c5cccnc5c5ncccc5c4nc3c1N2`, the result in the series with HT29-AK was inactive. For the same compound, the viability at 5 µM in the series with A-431 [3] amounted to 85%.

Regarding `CCOc1ccc2c3c(nccc13)-c1ccc(N)cc1N2`, the IC60 in series [4] came out at 1350 nM. This compound also returned an IC50 in the series with A-431 [5] of 2100 nM. Moreover, the pKa in series [1] turned out to be 5.3. The solubility entry in series [6] was “Soluble”. The logP in series [2] stood at 2.62.
